Measured values taken from article PMC11790914, “Chemogenomics for steroid hormone receptors (NR3)” (Communications Chemistry, 2025).
Several values for one entry are separate records, joined by “and”; a condition that tells them apart may be missing. Equal values may be shown once.

Legend:
[1] = target: T1, AURKA (Homo sapiens, UniProt O14965); experiment: Liability panel screening by DSF: AURKA; type: binding; details: DSF, 20 µM, n=2; read-out: Mean ΔTM AURKA
T1 construct: made in house
T1 sequence (O14965 1-403): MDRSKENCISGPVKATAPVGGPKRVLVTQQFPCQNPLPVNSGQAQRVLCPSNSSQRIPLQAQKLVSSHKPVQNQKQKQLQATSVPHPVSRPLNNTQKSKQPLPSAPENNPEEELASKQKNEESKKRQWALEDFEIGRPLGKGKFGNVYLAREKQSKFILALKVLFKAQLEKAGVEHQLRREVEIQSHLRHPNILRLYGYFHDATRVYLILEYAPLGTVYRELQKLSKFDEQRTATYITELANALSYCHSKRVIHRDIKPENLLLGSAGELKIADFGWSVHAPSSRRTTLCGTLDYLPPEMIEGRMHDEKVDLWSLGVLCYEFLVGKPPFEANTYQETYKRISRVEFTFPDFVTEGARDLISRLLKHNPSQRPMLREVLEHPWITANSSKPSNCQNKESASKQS
Procedure, shortened: (§1)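 Thermal shift: in-house recombinant protein at 2 µM in 10 mM HEPES pH 7.5 with 500 mM NaCl, SYPRO Orange 1:1000, heated at 3 °C/min to 85 °C in technical duplicates. Tm is the Boltzmann inflection point, reported as ∆Tm in K.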

[2] = target: T2, FGFR3 (Homo sapiens, UniProt P22607); experiment: Liability panel screening by DSF: FGFR3; type: binding; details: DSF, 20 µM, n=2; read-out: Mean ΔTM FGFR3
T2 construct: made in house
T2 sequence (P22607 23-806, species assumed): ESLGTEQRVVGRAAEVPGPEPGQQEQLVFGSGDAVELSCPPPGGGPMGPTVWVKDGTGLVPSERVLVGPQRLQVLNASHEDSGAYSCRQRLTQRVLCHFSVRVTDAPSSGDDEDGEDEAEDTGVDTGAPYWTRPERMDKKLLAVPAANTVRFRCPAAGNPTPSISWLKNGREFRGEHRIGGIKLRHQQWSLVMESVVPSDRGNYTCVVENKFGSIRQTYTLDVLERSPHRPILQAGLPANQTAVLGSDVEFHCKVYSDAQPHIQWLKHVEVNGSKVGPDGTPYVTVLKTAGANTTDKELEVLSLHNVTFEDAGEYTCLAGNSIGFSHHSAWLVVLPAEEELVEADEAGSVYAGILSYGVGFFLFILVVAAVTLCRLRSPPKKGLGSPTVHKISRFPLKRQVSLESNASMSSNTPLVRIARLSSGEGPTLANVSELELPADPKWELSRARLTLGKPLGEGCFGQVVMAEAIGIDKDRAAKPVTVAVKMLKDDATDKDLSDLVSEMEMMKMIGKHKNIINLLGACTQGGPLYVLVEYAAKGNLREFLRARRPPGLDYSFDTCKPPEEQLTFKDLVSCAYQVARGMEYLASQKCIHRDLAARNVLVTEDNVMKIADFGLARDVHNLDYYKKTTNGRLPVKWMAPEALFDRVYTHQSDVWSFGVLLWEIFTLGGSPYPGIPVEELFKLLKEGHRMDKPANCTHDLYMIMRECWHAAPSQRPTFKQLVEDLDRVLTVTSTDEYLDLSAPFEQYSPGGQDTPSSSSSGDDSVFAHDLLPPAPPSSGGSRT
Procedure, shortened: as §1

[3] = system: NR3C1 (GR); details: cited from earlier work
[4] = system: HEK293T cells; experiment: Cytotoxicity: metabolic activity (WST-8 / CCK-8 assay); details: 1 µM; HEK293T, 24 h; WST-8; normalized to 0.1% DMSO; single replicates
[5] = target: T3, BRD4 (Homo sapiens, UniProt O60885); experiment: Liability panel screening by DSF: BRD4; type: binding; details: DSF, 20 µM, n=2; read-out: Mean ΔTM BRD4
T3 construct: This panel comprised ten highly ligandable kinases and bromodomains; made in house
Procedure, shortened: as §1

[6] = system: NR3C2 (MR); details: cited from earlier work
[7] = system: HEK293T cells; experiment: Cytotoxicity: growth-rate (change in confluence over 24 h); details: 1 µM, normalized to 0.1% DMSO control, single replicates (n=1...)
[8] = target: T4, GSK3B (Homo sapiens, UniProt P49841); experiment: Liability panel screening by DSF: GSK3B; type: binding; details: DSF, 20 µM, n=2; read-out: Mean ΔTM GSK3B
T4 construct: made in house
T4 sequence (P49841 whole entry, species assumed): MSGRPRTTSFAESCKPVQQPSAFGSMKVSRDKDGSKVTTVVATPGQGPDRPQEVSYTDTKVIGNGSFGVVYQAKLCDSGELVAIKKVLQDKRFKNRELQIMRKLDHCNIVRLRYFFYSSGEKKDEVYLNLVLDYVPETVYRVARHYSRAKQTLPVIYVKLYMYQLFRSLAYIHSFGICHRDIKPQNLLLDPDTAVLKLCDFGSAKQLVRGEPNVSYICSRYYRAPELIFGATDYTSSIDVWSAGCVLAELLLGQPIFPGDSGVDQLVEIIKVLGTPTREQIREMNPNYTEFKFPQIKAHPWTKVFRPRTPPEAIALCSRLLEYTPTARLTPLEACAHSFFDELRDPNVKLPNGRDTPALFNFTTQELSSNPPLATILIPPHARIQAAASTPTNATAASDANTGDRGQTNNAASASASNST

[9] = target: T5, TRIM24 (Homo sapiens, UniProt O15164); experiment: Liability panel screening by DSF: TRIM24; type: binding; details: DSF, 20 µM, n=2; read-out: Mean ΔTM TRIM24
T5 construct: This panel comprised ten highly ligandable kinases and bromodomains; made in house
T5 sequence (O15164 899-1004 limits assumed): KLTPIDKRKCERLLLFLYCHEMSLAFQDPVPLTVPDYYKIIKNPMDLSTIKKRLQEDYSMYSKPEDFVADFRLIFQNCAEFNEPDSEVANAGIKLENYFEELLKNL
Procedure, shortened: as §1

[10] = system: HEK293T cells; experiment: Cytotoxicity: necrosis induction (red fluorescent dye for permeable plasma membranes); type: cell-based; details: 1 µM, 24 h, necrotic cell count normalized to 0.1% DMSO, single replicates;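 also: compounds applied in DMEM high glucose with 0.1% FCS and 0.1% DMSO, necrotic HEK293T cells counted by red staining of cells whose plasma membranes had become permeable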
[11] = system: ATF6 activity in Hela ATF6 reporter cells; experiment: Endoplasmic reticulum stress assay (ATF6 Renilla luciferase reporter, tunicamycin); type: cell-based; details: for activity at 1 µM: Homo sapiens, HeLa, single replicates n=1 to n=5, read-out: ER stress [rel. ATF6 activity]
Procedure, shortened: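 HeLa ATF6 Renilla reporter cells were pretreated 4 h with compounds in 0.1% DMSO, then stimulated with tunicamycin (100 ng/mL) for 18 h. Renilla luminescence (DualGlo) was normalized to 0.1% DMSO control; five independent experiments.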

[12] = system: NF-κB activity in HEK293 NF-κB reporter cells; experiment: NF-kB activity assay (GFP reporter, ionomycin/PMA); type: cell-based; details: for Mean NFκB response: n=3
Procedure, shortened: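 HEK293 NF-κB GFP reporter cells given compound in 0.1% DMSO for 4 h, then stimulated with ionomycin 100 ng/mL plus PMA 10 ng/mL. Imaged every 90 min over 24 h; GFP-positive cell count normalized to confluence, three independent biological replicates.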

[13] = target: T6, ABL1 (Homo sapiens, UniProt P00519); experiment: Liability panel screening by DSF: ABL1; type: binding; details: DSF, 20 µM, n=2; read-out: Mean ΔTM ABL1
T6 construct: made in house
T6 sequence (P00519 whole entry, species assumed): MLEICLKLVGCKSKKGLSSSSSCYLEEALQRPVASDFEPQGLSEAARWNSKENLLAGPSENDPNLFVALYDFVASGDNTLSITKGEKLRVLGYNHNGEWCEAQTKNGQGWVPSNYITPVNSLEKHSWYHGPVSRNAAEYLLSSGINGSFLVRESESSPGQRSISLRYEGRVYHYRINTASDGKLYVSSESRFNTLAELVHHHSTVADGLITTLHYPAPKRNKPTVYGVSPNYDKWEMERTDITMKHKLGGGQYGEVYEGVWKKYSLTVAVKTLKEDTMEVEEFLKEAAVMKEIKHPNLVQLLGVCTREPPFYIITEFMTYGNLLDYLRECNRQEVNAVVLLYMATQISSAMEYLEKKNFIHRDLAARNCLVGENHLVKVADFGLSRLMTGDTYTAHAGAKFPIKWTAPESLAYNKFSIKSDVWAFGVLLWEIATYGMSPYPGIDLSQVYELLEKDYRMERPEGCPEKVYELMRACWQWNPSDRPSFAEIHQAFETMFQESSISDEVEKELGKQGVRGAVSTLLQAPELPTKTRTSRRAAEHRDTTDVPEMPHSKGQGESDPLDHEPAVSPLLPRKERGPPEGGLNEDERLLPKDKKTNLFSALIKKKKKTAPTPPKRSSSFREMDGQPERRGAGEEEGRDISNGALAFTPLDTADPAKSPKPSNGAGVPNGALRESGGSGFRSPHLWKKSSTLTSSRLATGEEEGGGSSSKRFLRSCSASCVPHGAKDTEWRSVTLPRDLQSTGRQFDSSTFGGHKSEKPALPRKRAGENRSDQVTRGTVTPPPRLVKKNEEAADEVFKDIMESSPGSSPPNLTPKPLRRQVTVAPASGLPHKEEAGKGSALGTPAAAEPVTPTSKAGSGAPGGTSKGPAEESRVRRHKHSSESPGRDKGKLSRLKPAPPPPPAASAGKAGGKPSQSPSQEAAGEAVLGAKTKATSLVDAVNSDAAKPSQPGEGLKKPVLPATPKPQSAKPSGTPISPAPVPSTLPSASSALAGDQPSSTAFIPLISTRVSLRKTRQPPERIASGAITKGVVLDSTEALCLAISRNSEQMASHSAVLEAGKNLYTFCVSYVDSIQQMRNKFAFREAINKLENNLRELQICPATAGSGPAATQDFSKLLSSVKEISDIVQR
Procedure, shortened: as §1

[14] = target: T7, BRPF1 (Homo sapiens, UniProt P55201); experiment: Liability panel screening by DSF: BRPF1; type: binding; details: DSF, 20 µM, n=2; read-out: Mean ΔTM BRPF1
T7 construct: This panel comprised ten highly ligandable kinases and bromodomains; made in house
T7 sequence (P55201 628-732 limits assumed): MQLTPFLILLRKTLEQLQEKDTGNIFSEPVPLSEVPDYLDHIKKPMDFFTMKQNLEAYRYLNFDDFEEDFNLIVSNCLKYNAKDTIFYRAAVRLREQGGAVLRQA
Procedure, shortened: as §1

[15] = system: Gal4-VP16; type: cell-based; details: 1 µM; vs. DMSO ctrl; single replicates n=1-3
[16] = target: T8, MAPK1 (Homo sapiens, UniProt P28482); experiment: Liability panel screening by DSF: MAPK1; type: binding; details: DSF, 20 µM, n=2; read-out: Mean ΔTM MAPK1
T8 construct: made in house
T8 sequence (P28482 whole entry, species assumed): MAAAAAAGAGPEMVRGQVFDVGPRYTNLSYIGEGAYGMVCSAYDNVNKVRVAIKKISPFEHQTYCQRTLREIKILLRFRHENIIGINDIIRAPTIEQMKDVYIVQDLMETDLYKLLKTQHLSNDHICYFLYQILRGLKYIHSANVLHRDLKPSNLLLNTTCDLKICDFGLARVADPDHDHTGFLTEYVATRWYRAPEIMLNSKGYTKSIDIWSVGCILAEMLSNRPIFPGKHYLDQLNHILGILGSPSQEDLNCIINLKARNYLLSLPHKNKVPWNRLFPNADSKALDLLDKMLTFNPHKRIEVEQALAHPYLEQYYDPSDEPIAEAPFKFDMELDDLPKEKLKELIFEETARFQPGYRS
Procedure, shortened: as §1

[17] = system: HEK293T cells; experiment: Cytotoxicity: apoptosis induction (caspase-3/7 DEVD fluorogenic DNA dye); details: 1 µM; HEK293T, 24 h; apoptotic cell count normalized to 0.1% DMSO; single replicates
Experimental: Cells were incubated with the test compounds at the indicated concentrations solubilized with 0.1% DMSO for 24 h. Growth-rate was determined based on the change in confluence over 24 h normalized to the change in confluence of cells treated with the 0.1% DMSO control (n = 10). Metabolic activity was determined with a water-soluble tetrazolium-8 (WST-8) assay (n = 8) after 24 h treatment. Apoptotic cells were detected with a fluorogenic DNA dye coupled to the caspase-3/7 recognition sequence (DEVD) after 24 h treatment and the apoptotic cell count was normalized to 0.1% DMSO treated cells (n = 6).
HEK293T cells (German Collection of Microorganisms and Cell Culture GmbH, DSMZ; #ACC305) were cultured in DMEM high glucose, supplemented with 10% fetal calf serum (FCS), sodium pyruvate (1 mM), penicillin (100 µ/mL) and streptomycin (100 µg/mL) at 37 °C and 5% (v/v) CO2, and seeded in pre-coated (10 µg/mL collagen G solution (Merck KgaA; #L7213) for 30 min at 37 °C) 96-well plates (2 × 10^5 cells per well). After 24 h, the cells were treated with the respective NR3 CG compound candidate at the recommended concentration, bexarotene (100 µM) or doxorubicin (30 µM) as positive controls in DMEM high glucose supplemented with 0.1% FCS, penicillin (100 µ/mL), streptomycin (100 µg/mL) and 0.1% DMSO, or 0.1% DMSO alone as an untreated control. Each sample was prepared in at least four biologically independent replicates. […] Thereafter, the medium was aspirated and the cells were incubated for 3 h with 90 µL DMEM high glucose supplemented with 0.2% FCS, penicillin (100 µ/mL) and streptomycin (100 µg/mL) and additionally containing 10 µL Cell Counting Kit 8 solution (CCK-8; MedChemExpress, Monmouth Junction, New York, USA; #HY-K0301), and absorbance was measured at 1 h, 2 h and 3 h of incubation at 450 nm on a Tecan Spark Cyto to assess metabolic activity of the cells. Before drug administration, after the first medium exchange, 24 h after drug administration, and after fluorescence imaging cell confluence was assessed using the Tecan Spark Cyto, to account for changes in cell confluence due to drug administration and cell handling. Compound effects on cell confluence, apoptosis, metabolic activity and necrosis were normalized to the vehicle control of each biological replicate individually.

[18] = target: T9, CDK2 (Homo sapiens, UniProt P24941); experiment: Liability panel screening by DSF: CDK2; type: binding; details: DSF, 20 µM, n=2; read-out: Mean ΔTM CDK2
T9 construct: made in house
Procedure, shortened: as §1

[19] = target: T10, CSNK1D (Homo sapiens, UniProt P48730); experiment: Liability panel screening by DSF: CSNK1D; type: binding; details: DSF, 20 µM, n=2; read-out: Mean ΔTM CSNK1D
T10 construct: made in house
T10 sequence (P48730 whole entry, species assumed): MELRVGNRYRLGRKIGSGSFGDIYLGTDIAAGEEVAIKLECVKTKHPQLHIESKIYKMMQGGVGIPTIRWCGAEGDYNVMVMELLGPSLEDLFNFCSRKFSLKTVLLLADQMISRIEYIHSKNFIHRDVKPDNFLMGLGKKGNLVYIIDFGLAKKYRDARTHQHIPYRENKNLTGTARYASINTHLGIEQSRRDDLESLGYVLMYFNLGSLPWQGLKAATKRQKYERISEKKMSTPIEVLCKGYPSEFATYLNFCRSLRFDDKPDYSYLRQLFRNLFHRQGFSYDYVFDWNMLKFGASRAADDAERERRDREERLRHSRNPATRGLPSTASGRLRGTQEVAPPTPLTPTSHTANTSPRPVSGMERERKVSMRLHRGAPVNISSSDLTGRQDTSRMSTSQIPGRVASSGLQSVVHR
Procedure, shortened: as §1

[20] = system: NR3C3 (PR); details: (lit.); ref Supplementary Table 1; read-out: Potency [nM] EC50, NR3C3 (PR); cited from earlier work

SMILES	ΔTm at 20 µM [1] [°C]	ΔTm at 20 µM [5] [°C]	ΔTm at 20 µM [8] [°C]	ΔTm at 20 µM [9] [°C]	Necrosis induction [NI] [10]	activity at 1 µM [11] [%]	Mean NFκB response ([12]; 1 µM, 1,5 h)	Mean NFκB response ([12]; 1 µM, 4,5 h)	Mean NFκB response ([12]; 1 µM, 7,5 h)	Mean NFκB response ([12]; 1 µM, 10,5 h)	Mean NFκB response ([12]; 1 µM, 13,5 h)	Mean NFκB response ([12]; 1 µM, 16,6 h)	Mean NFκB response ([12]; 1 µM, 19,5 h)	Mean NFκB response ([12]; 1 µM, 22,5 h)	Mean NFκB response ([12]; 1 µM, 3 h)	Mean NFκB response ([12]; 1 µM, 6 h)	Mean NFκB response ([12]; 1 µM, 9 h)	Mean NFκB response ([12]; 1 µM, 12 h)	Mean NFκB response ([12]; 1 µM, 15 h)	Mean NFκB response ([12]; 1 µM, 18 h)	also measured
CC(=O)OCC(=O)[C@@]1(O)CC[C@H]2[C@@H]3CCC4=CC(=O)CC[C@]4(C)[C@@]3(F)[C@@H](O)C[C@@]21C [Fludrocortisone acetate]	0.09	-0.79	-0.61	-0.96	1.13 and 1.14 and 1.54 and 1.19	82	3820.94 GFP+-cells/confluence ∙ 1000	4296.72 GFP+-cells/confluence ∙ 1000	6095.26 GFP+-cells/confluence ∙ 1000	8052.10 GFP+-cells/confluence ∙ 1000	9784.85 GFP+-cells/confluence ∙ 1000	11376.50 GFP+-cells/confluence ∙ 1000	12926.78 GFP+-cells/confluence ∙ 1000	13912.05 GFP+-cells/confluence ∙ 1000	3762.70 GFP+-cells/confluence ∙ 1000	5124.39 GFP+-cells/confluence ∙ 1000	7003.20 GFP+-cells/confluence ∙ 1000	8806.82 GFP+-cells/confluence ∙ 1000	10595.86 GFP+-cells/confluence ∙ 1000	12286.70 GFP+-cells/confluence ∙ 1000	ΔTm at 20 µM [2]: -0.06 °C; EC50 ([3]; (lit.), ref Supplementary Table 1, read-out: Potency [nM] EC50, NR3C1 (GR)): 4 nM; rel. activity from literature, NR3C1 (GR): fold activation [3]: ~ 1000 fold; Metabolic activity [MA] [4]: 1.08 (2×) and 0.93 and 1.06 and 1.01 and 0.96 and 1.04 and 1.00; rel. activity from literature, NR3C2 (MR): fold activation [6]: ~ 41 fold; Growth rate [GR] [7]: 1.03 and 5.01 and 1.16 and 1.40 and 1.04 and 0.96 and 0.90 and 1.39 and 3.00 and 9.23; ATF6 activity (tunicamycin-induced endoplasmic reticulum stress) ([11]; Hela ATF6 reporter cells, tunicamycin 100 ng/mL, 18 h, compounds at recommended concentrations, n = 5): Consistently weaker ATF6 activity; Mean NFκB response ([12]; 1 µM, 21 h): 13535.05 GFP+-cells/confluence ∙ 1000; Mean NFκB response ([12]; 1 µM, 24 h): 14315.67 GFP+-cells/confluence ∙ 1000; NF-κB activity (inflammatory response to ionomycin/PMA) ([12]; HEK293 NF-κB reporter cells, compounds at recommended concentrations, imaged over 24 h, n = 3): consistently delayed and strongly diminished NF-κB activity; ΔTm at 20 µM [13]: -0.12 °C; ΔTm at 20 µM [14]: -0.43 °C; VP16 control [fold reporter gene activity] [15]: 0.96 fold reporter gene activity and 0.81 fold reporter gene activity and 0.89 fold reporter gene activity; ΔTm at 20 µM [16]: 0.55 °C; Apoptosis induction [AI] [17]: 1.14 and 1.39 and 1.56 and 1.37 and 1.13 and 1.61; ΔTm at 20 µM [18]: -0.73 °C; ΔTm at 20 µM [19]: -0.08 °C
N#Cc1ccc(N2N=C3c4ccc(C(=O)O)cc4CC[C@@H]3[C@@H]2C2CCCC2)cc1Cl [PF-03882845]	0.42	0	0	1.43	1.10 and 0.88 and 0.95 and 1.46	94	2659.67 GFP+-cells/confluence ∙ 1000	3143.33 GFP+-cells/confluence ∙ 1000	6360.00 GFP+-cells/confluence ∙ 1000	17053.33 GFP+-cells/confluence ∙ 1000	25306.67 GFP+-cells/confluence ∙ 1000	31613.33 GFP+-cells/confluence ∙ 1000	36320.00 GFP+-cells/confluence ∙ 1000	39133.33 GFP+-cells/confluence ∙ 1000	2686.67 GFP+-cells/confluence ∙ 1000	3810.00 GFP+-cells/confluence ∙ 1000	11590.00 GFP+-cells/confluence ∙ 1000	21213.33 GFP+-cells/confluence ∙ 1000	28830.00 GFP+-cells/confluence ∙ 1000	34136.67 GFP+-cells/confluence ∙ 1000	EC50 ([6]; (lit.), ref Supplementary Table 1, read-out: Potency [nM] EC50, NR3C2 (MR)): 9 nM; Mean NFκB response ([12]; 1 µM, 21 h): 37763.33 GFP+-cells/confluence ∙ 1000; Mean NFκB response ([12]; 1 µM, 24 h): 40546.67 GFP+-cells/confluence ∙ 1000; EC50 [20]: 416 nM; ΔTm at 20 µM [13]: -2.47 °C; ΔTm at 20 µM [14]: -8.37 °C; ΔTm at 20 µM [16]: -9.49 °C; Apoptosis induction [AI] [17]: 0.00 (4×) and 0.46 and 0.70; ΔTm at 20 µM [18]: -2.04 °C; ΔTm at 20 µM [19]: -4.9 °C
